# Data reported in patent publication US10258691B2 (SignPath Pharma Inc., priority 2014, dated 2019).
# Values joined by “and” are separate entries in the source; they are usually repeats but may differ in a detail not shown here. Identical values can stand only once. “Also recorded” adds a separate entry of the source. Counter-ions that a name gives are not always drawn.
# How the values were obtained:
# [1] = target: T1, hERG (Homo sapiens, UniProt Q12809); experiment: Whole-cell patch-clamp, protective effect of 10:0-18:0 Lyso PG and 14:0 EGPG against hERG inhibition by Nilotinib; type: cell-based; set-up: expressed in transfected cells; host or cells: HEK 293, stably transfected with the hERG gene (HEK-hERG); details: for protective effect against hERG inhibition by Nilotinib (in words): PLs/Nilo ratio 9:1; for inhibition of the hERG tail current (in words): lipid alone or Nilotinib 0.5 μg/mL formulated with lipid […] (9:1)
# Protocol: The purpose of this study is to evaluate in vitro the protective effect of 10:0 Lyso PG, 12:0 Lyso PG, 14:0 Lyso PG, 16:0 Lyso PG, 18:0 Lyso PG and 14:0 EGPG on the rapidly activating delayed-rectifier potassium selective current (IK) generated under normoxic conditions in stably transfected Human Embryonic Kidney cells (HEK 293 cells).
# The test samples were prepared as follows. […] The solution was vortexed for 10 minutes before being used in the patch-clamp assay.
# Test performed: Whole-cell patch-clamp current acquisition and analysis. Temperature: 35±2° C. Original data acquisition design: Acquisition Rate(s): 1.0 kHz.
# Patch-clamp current recording. […] Isolated cells were plated into 2-mL experimental chambers, mounted on the platform of an inverted microscope. The cells were superfused with external solution (in mM: NaCl 140.0, KCl 5.0, CaCl2 1.8, MgCl2 1.0, HEPES 10.0, dextrose 10.0, pH 7.4±0.05). A 2-10 MΩ resistance pipette was filled with the pipette solution (in mM: KCl 140.0, MgCl2 1.0, Mg-ATP 4.0, EGTA 5.0, HEPES 10.0, sucrose 10.0, pH 7.4±0.05), and brought to contact the external membrane of a single cell.
# Application of test samples: 5 minutes of exposure to each concentration in presence of closed circuit perfusion (2 mL/min). 5 minutes for washout periods in presence of a flow-through perfusion (2 mL/min) in addition to a closed circuit perfusion (2 mL/min). […] Cells were under continuous stimulation of the pulses protocol throughout the studies and cell currents were recorded after 5 minutes of exposure to each condition.
# Statistical analysis: Statistical comparisons were made using paired Student's t-tests, comparing each treatment period with its corresponding value at the baseline condition. The currents recorded after the exposure of each test sample were compared to the currents recorded in baseline conditions. Differences were considered significant when p≤0.05.
# Effect of the Test Samples on whole-cell IKr hERG currents. Whole-cell currents elicited during a voltage pulse were recorded in baseline conditions and following the application of the selected concentration of test sample. The cells were depolarized for one second from the holding potential (−80 mV) to a maximum value of +40 mV, starting at −40 mV and progressing in 10 mV increments. The membrane potential was then repolarized to −55 mV for one second, and finally returned to −80 mV.
# Whole-cell tail current amplitude was measured at a holding potential of −55 mV, following activation of the current from −40 to +40 mV. Current amplitude was measured at the maximum (peak) of this tail current. Current density was obtained by dividing current amplitude by cell capacitance measured prior to capacitive transient minimization.
# Current run-down and solvent effect correction. All data points presented in this example were corrected for solvent effect and time-dependent current run-down. Current run-down and solvent effects were measured simultaneously by applying the study design in test sample-free conditions over the same time frame as was done with the test sample. The loss in current amplitude measured during these so-called vehicle studies (representing both solvent effects and time-dependent run-down) was subtracted from the loss of amplitude measured in the presence of the test sample to isolate the effect of the test sample, apart from the effect of the solvent and the inevitable run-down in current amplitude over time.
# [2] = tested on: HEK293 cell; details: 20 μM, 24 h incubation; cited from earlier work
# [3] = tested on: rabbits; details: intravenous injection of 20 mg; cited from earlier work
# [4] = target: T1, hERG; experiment: Whole-cell patch-clamp, protective effect of DMPC, DMPG, DMPC/DMPG, LysoPG and LysoPC against hERG inhibition by Nilotinib; details: for inhibition of the hERG tail current density (in words) / Corrected Normalized Current Density / Normalized Current Density: HEK 293; for inhibition of the hERG tail current density (in words): lipid alone or Nilotinib 0.1 μM formulated in aqueous solution with lipid; for Corrected Normalized Current Density: corrected for solvent effect and current run-down, baseline 1.000; for Corrected Normalized Current Density / Normalized Current Density: Nilotinib 0.1 μM (alone in DMSO, with lipid in aqueous solution), 14:0 LysoPG […]; for Normalized Current Density: hERG tail current density relative to baseline 1.000, 5 min exposure; for protection against hERG inhibition caused by Nilotinib (in words): in vitro, co-formulated with Nilotinib
# [5] = tested on: Male Hartley guinea pigs; experiment: Moxifloxacin-induced QTc prolongation in guinea pigs, oral phospholipids; type: in vivo, guinea pig; details: for mitigation of MF-induced QT prolongation (in words): oral gavage 2 hours before 20 mg/kg i.v. MF, PL to drug ratio 1:1 (FIG. 11A)
# [6] = tested on: Sprague Dawley male rats; experiment: Moxifloxacin-induced QTc prolongation in rats, oral complex pre-treatment; type: in vivo; details: rat; Moxifloxacin 20 mg/kg i.v. over 20 minutes
# From the text: Methods. The present inventors formulated the product in a complex mixture as an oral application in order to facilitate drug delivery in cancer patients being treated with oral LQTS inducing drugs. Preclinical evaluation of the oral application was done by instrumented Sprague Dawley male (250-300 g) rats. Cutaneous ECG leads were used to maximize T wave detection. The animals in groups of 3 rats were briefly anesthetized with a light dose of isoflurane, and a pre-treatment ECG was obtained to establish well-defined T waves, and to rule-out existing arrhythmic predispositions. Pre-treatment ECG profiles were normal.
# A single dose of the oral complex in the ratio of 9:1 Moxifloxicin was vortexed continuously for 5 minutes to obtain an emulsion and immediately administered by gavage. Moxifloxacin, a broad spectrum antibiotic with documented LQTS activity, was formulated in DMSO and 2 hours afterwards infused intravenously (femoral canula) over 20 minutes at a starting dose of 2.8 mg/kg. ECGs were recorded from 5 minutes prior to and during the 20 minute infusion. Then the animals were dosed at 6.1 mg/kg over 20 minutes; then 20 mg/kg over 20 minutes. In a positive control group moxifloxacin was infused alone. In a second group of rats the complex was given orally 2 hours prior to the first dose of moxifloxacin. […]
# T1 sequence (Q12809 whole entry): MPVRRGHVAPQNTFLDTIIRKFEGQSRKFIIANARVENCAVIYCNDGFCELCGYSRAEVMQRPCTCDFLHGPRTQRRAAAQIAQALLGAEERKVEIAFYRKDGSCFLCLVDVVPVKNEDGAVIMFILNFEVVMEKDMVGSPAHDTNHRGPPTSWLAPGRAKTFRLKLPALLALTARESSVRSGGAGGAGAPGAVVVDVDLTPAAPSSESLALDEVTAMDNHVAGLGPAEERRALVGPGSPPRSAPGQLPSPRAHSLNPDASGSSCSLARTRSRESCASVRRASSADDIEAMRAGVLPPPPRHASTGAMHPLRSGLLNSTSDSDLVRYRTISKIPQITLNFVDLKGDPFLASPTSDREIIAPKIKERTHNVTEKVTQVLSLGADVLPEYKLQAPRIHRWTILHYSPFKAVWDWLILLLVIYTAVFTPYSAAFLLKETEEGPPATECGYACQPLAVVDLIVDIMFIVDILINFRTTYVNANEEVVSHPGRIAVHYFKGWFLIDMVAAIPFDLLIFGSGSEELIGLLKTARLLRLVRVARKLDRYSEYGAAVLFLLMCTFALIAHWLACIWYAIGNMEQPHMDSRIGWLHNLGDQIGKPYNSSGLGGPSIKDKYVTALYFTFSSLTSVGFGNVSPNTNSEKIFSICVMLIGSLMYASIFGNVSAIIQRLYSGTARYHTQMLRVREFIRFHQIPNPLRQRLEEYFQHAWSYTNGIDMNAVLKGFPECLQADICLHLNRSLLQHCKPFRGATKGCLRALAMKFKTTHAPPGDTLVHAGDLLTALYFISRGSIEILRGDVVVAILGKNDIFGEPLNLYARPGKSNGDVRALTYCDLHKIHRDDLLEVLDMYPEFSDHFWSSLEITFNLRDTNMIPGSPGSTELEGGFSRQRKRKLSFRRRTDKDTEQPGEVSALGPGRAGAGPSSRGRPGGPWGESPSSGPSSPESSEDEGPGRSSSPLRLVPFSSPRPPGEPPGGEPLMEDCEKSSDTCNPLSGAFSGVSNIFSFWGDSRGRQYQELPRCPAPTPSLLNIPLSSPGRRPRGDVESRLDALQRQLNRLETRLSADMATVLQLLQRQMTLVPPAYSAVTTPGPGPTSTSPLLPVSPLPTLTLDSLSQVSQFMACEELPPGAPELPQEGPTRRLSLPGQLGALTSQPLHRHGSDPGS
smiles,measurement,setting,value
"CCCCCCCCCCCCCCCC(=O)OC[C@@H](O)COP(=O)([O-])OCC(O)CO.[Na+] (mixture of isomers) [16:0 LysoPG, 1-palmitoyl-2-hydroxy-sn-glycero-3-[phospho-rac-(1-glycerol)] sodium salt]",protective effect against hERG inhibition by Nilotinib (in words),"[1]; listed as 16:0 Lyso PG, sodium salt",higher protective
same,protective effect against hERG inhibition by Nilotinib (in words),[1]; sodium salt,prevented the inhibition; also recorded: most potent
same,inhibition of the hERG tail current (in words),[1],did not cause any inhibition
"CCCCCCCCCCCCCCCCCC(=O)OC[C@@H](O)COP(=O)([O-])OCC(O)CO.[Na+] (mixture of isomers) [18:0 LysoPG, 1-stearoyl-2-hydroxy-sn-glycero-3-[phospho-rac-(1-glycerol)] sodium salt]",protective effect against hERG inhibition by Nilotinib (in words),[1],prevented the inhibition
same,inhibition of the hERG tail current (in words),[1],did not cause any inhibition
"COc1cc(/C=C/C(=O)/C=C(O)/C=C/c2ccc(O)c(OC)c2)ccc1O [curcumin, Curcumin]",HEK293 cell viability,[2],reduced the HEK293 cell viability
same,cardiac repolarization manifested by QTc values,[3],did not affect the cardiac repolarization
"CCCCCCCCCCCCCC(=O)OC[C@@H](O)COP(=O)(O)OCC(O)CO (mixture of isomers) [14:0 LysoPG, 1-myristoyl-2-hydroxy-sn-glycero-3-[phospho-rac-(1-glycerol)] sodium salt]",protective effect against hERG inhibition by Nilotinib (in words),"[1]; listed as 14:0 Lyso PG, sodium salt",higher protective
same,protective effect against hERG inhibition by Nilotinib (in words),[1]; sodium salt,prevented the inhibition; also recorded: most potent
same,inhibition of the hERG tail current (in words),[1],did not cause any inhibition
same,inhibition of the hERG tail current density (in words),[4],did not cause any inhibition
same,Corrected Normalized Current Density,[4],1.124
same,Normalized Current Density,[4],0.930
same,protection against hERG inhibition caused by Nilotinib (in words),[4],protects against hERG inhibition
"CCCCCCCCCCCCCC(=O)OC[C@H](COP(=O)([O-])OCC(O)CO)OC(=O)CCCCCCCCCCCCC.[Na+] (some centres unmarked) [DMPG, 1,2-dimyristoyl-sn-glycero-3-[phosphoric-(1-glycerol)] (sodium salt)]",mitigation of MF-induced QT prolongation (in words),[5],prevented the MF-induced QTs prolongation
same,inhibition of the hERG tail current density (in words),[4],did not cause any inhibition
same,Corrected Normalized Current Density,[4],0.994
same,Normalized Current Density,[4],0.800
same,protection against hERG inhibition caused by Nilotinib (in words),[4]; (sodium salt),protects against hERG inhibition; also recorded: abrogated the effects of nilotinib
"CCCCCCCCCCCC(=O)OC[C@@H](O)COP(=O)([O-])OCC(O)CO.[Na+] (mixture of isomers) [12:0 LysoPG, 1-dodecanoyl-2-hydroxy-sn-glycero-3-[phospho-rac-(1-glycerol)] sodium salt]",protective effect against hERG inhibition by Nilotinib (in words),[1],prevented the inhibition
same,inhibition of the hERG tail current (in words),[1],did not cause any inhibition
COc1c(N2C[C@@H]3CCCN[C@@H]3C2)c(F)cc2c(=O)c(C(=O)O)cn(C3CC3)c12 [Moxifloxacin],QTc prolongation,[6],48 ms and 55 ms
same,QTc prolongation,[5]; 20 mg/kg i.v. MF,35 ms
"CCCCCCCCCC(=O)OC[C@@H](O)COP(=O)([O-])OCC(O)CO.[Na+] (mixture of isomers) [10:0 LysoPG, 1-decanoyl-2-hydroxy-sn-glycero-3-[phospho-rac-(1-glycerol)] sodium salt]",protective effect against hERG inhibition by Nilotinib (in words),[1],prevented the inhibition
same,inhibition of the hERG tail current (in words),[1],did not cause any inhibition
"CCCCCCCCCCCCCC(=O)OCCOP(=O)(O)OCC(O)CO.N (centres unmarked) [14:0 EGPG, 2,3-dihydroxypropyl(2-[tetradecanoyloxy]ethyl)phosphate (ammonium salt)]",mitigation of MF-induced QT prolongation (in words),[5],prevented the MF-induced QTs prolongation
same,protective effect against hERG inhibition by Nilotinib (in words),[1]; (ammonium salt),prevented the inhibition; also recorded: higher protective
same,inhibition of the hERG tail current (in words),[1],did not cause any inhibition
"Cc1cn(-c2cc(NC(=O)c3ccc(C)c(Nc4nccc(-c5cccnc5)n4)c3)cc(C(F)(F)F)c2)cn1 [Nilotinib, reference compound]","inhibition at 5 min, 1 μM","[1]; human, HEK 293 cells stably transfected with hERG, pH 7.4, read-out: inhibition of the hERG tail current",70%
